Test results reported in paper PMC4308110 (PLoS ONE, 2015).

Target: T1, SthK-Cterm (Winmispira thermophila, UniProt E0RR11)
T1 construct: gene STHERM_c06300; C-linker/CNBD, residues 226-430 of full length; synthetic gene, His6-MBP fusion cut with thrombin; E. coli BL21(DE3); tetramer (SEC-MALLS); model residues 226-423
Assay: X-ray crystal structure
Settings: antagonist; 5 mM cGMP added; bistrispropane pH 7.5, 20 °C; 2.55 Å; cyclic nucleotide-binding site

T1 sequence (E0RR11 entry or part of it): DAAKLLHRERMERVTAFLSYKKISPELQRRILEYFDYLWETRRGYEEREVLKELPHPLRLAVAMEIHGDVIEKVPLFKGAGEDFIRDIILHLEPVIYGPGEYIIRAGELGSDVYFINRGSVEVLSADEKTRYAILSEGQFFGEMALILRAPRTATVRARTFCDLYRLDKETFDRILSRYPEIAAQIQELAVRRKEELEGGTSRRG

Compound: Nc1nc2c(ncn2[C@@H]2O[C@@H]3COP(=O)(O)O[C@H]3[C@H]2O)c(=O)[nH]1 [cGMP]
- X-ray crystal structure: we observe that cGMP is able to bind in the cyclic nucleotide binding cavity from SthK
